Measured values from US11560455B2, “Method for rapid gelation of silk fibroin solution under physiological conditions” (SOOCHOW UNIVERSITY, priority 2017, dated 2023).

Tested on: Human umbilical vein endothelial cells (HUVECs)
Test: Cell viability by CCK-8 assay
Type: cell-based
Details: 24 h, NapFF 10.0-200.0 μM, silk fibroin 0.1-2.0%, FIG. 9
Experimental: The cell viability was detected by CCK-8 assay. Human umbilical vein endothelial cells (HUVECs) were dispersed in a 96-well plate (at a cell concentration of 4000 cells/well) and cultured for 24 h in a 5% CO2 atmosphere at 37° C. The previous medium was replaced with a medium containing different concentrations of NapFF (10.0 μM, 20.0 μM, 50.0 μM, 100.0 μM, and 200.0 μM) and silk fibroin solutions (0.1%, 0.2%, 0.5%, 1.0%, and 2.0%), which was in turn replaced with a CCK-8 solution after 24 h. Finally, the optical density value (OD value) of the solution at 450 nm was measured on a microplate reader. The cell viability is expressed as percentage of the number of control (untreated) cells. The cell viability of the control group was set to 100% by default, and all experiments were performed in 5 replications.

With O=C(Cc1ccc2ccccc2c1)N[C@@H](Cc1ccccc1)C(=O)N[C@@H](Cc1ccccc1)C(=O)O [NapFF, 2-naphthaleneacetic acid-phenylalanine-phenylalanine] as the molecule, how does the “Cytotoxicity (cell viability, CCK-8)” value read?
Its value is “good biocompatibility”.
